Where “and” joins values, the source holds several entries; their conditions need not be identical. Equal values may be shown once. Toxic doses and inconclusive results are not listed. The calls were made as follows: active = survival T/C of 150% or more; inactive = T/C below 125% in these data.
Test system: CD2F1 mice, L1210 leukemia ip, survival T/C
Assay: NCI In Vivo Anticancer Drug Screen. Data for tumor model L1210 Leukemia (intraperitoneal) in CD2F1 (CDF1) mice
Conditions: higher = longer survival
Outline: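 In this screen, transplantable tumors were grown in mice given either the compound or its vehicle. Results were expressed as the treated measurement relative to the control measurement.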

[1] = endpoint: mean survival time, dose: 100.0 mg/kg/injection, schedule: Q04DX003 (ip), vehicle: saline with Tween-80
[2] = endpoint: mean survival time, dose: 200.0 mg/kg/injection, schedule: Q04DX003 (ip), vehicle: saline with Tween-80
[3] = endpoint: mean survival time, dose: 400.0 mg/kg/injection, schedule: Q04DX003 (ip), vehicle: saline with Tween-80
[4] = endpoint: mean survival time, dose: 100.0 mg/kg/injection, schedule: Q01DX009 (ip), vehicle: saline with Tween-80
[5] = endpoint: mean survival time, dose: 200.0 mg/kg/injection, schedule: Q01DX009 (ip), vehicle: saline with Tween-80
[6] = endpoint: mean survival time, dose: 400.0 mg/kg/injection, schedule: Q01DX009 (ip), vehicle: saline with Tween-80

Measured: T/C

CO[C@H]1Nc2c(ccc(C)c2O)C(=O)N2C=C(/C=C/C(N)=O)C[C@@H]12
inactive: endpoint: mean survival time, dose: 0.1 mg/kg/injection, schedule: Q01DX015 (ip), vehicle: saline 111 % of control | endpoint: mean survival time, dose: 0.2 mg/kg/injection, schedule: Q01DX015 (ip), vehicle: saline 119 % of control | endpoint: mean survival time, dose: 0.25 mg/kg/injection, schedule: Q01DX009 (ip), vehicle: saline sonified 106 % of control | endpoint: mean survival time, dose: 0.36 mg/kg/injection, schedule: Q01DX015 (ip), vehicle: saline 120 % of control | endpoint: mean survival time, dose: 0.5 mg/kg/injection, schedule: Q01DX009 (ip), vehicle: saline sonified 104 % of control | endpoint: mean survival time, dose: 1.0 mg/kg/injection, schedule: Q01DX009 (ip), vehicle: saline sonified 91 % of control | endpoint: mean survival time, dose: 1.0 mg/kg/injection, schedule: Q04DX003 (ip), vehicle: saline with Tween-80 117 % of control | endpoint: mean survival time, dose: 1.5 mg/kg/injection, schedule: Q04DX003 (ip), vehicle: saline with Tween-80 118 % of control | endpoint: mean survival time, dose: 25.0 micrograms/kg/injection, schedule: Q01DX009 (ip), vehicle: saline with Tween-80 108 % of control | endpoint: mean survival time, dose: 50.0 micrograms/kg/injection, schedule: Q01DX009 (ip), vehicle: saline with Tween-80 117 % of control | endpoint: mean survival time, dose: 100.0 micrograms/kg/injection, schedule: Q01DX009 (ip), vehicle: saline with Tween-80 109 % of control | endpoint: mean survival time, dose: 200.0 micrograms/kg/injection, schedule: Q01DX009 (ip), vehicle: saline with Tween-80 117 % of control | endpoint: median survival time, dose: 0.01 mg/kg/injection, schedule: Q01DX005 (ip), vehicle: DMSO 102 % of control | endpoint: median survival time, dose: 0.02 mg/kg/injection, schedule: Q01DX005 (ip), vehicle: DMSO 117 % of control | endpoint: median survival time, dose: 0.04 mg/kg/injection, schedule: Q01DX005 (ip), vehicle: DMSO 118 % of control

CC(C)CCCC(C)C1C(O)CC2C3CCC4CC(O)CCC4(C)C3CCC21C (centres undefined)
inactive: endpoint: mean survival time, dose: 25.0 mg/kg/injection, schedule: Q01DX001 (ip), vehicle: saline with Tween-80 103 % of control | endpoint: mean survival time, dose: 50.0 mg/kg/injection, schedule: Q01DX001 (ip), vehicle: saline with Tween-80 95 % of control | endpoint: mean survival time, dose: 100.0 mg/kg/injection, schedule: Q01DX001 (ip), vehicle: saline with Tween-80 97 % of control

O=C(O)C(=O)O.[Mn]
inactive: [1] 100 % of control | [2] 100 % of control | [3] 96 % of control

CC1(C)NC(=O)C2CC21C (centres undefined)
inactive: endpoint: mean survival time, dose: 25.0 mg/kg/injection, schedule: Q04DX002 (ip), vehicle: saline 96 % of control | endpoint: mean survival time, dose: 50.0 mg/kg/injection, schedule: Q04DX002 (ip), vehicle: saline 112 % of control | endpoint: mean survival time, dose: 100.0 mg/kg/injection, schedule: Q04DX002 (ip), vehicle: saline 93 % of control

CC1C=CC(C)c2c(-c3ccccc3)oc(-c3ccccc3)c21 (centres undefined)
inactive: [4] 88 % of control | [1] 100 % of control | [5] 86 % of control | [2] 97 % of control | [6] 91 % of control | [3] 96 % of control

O=C(O)/C=C/C(=O)c1ccccc1
inactive: endpoint: mean survival time, dose: 12.5 mg/kg/injection, schedule: Q04DX003 (ip), vehicle: saline with Tween-80 104 % of control | endpoint: mean survival time, dose: 25.0 mg/kg/injection, schedule: Q04DX003 (ip), vehicle: saline with Tween-80 98 % of control

O=C(O)C1CCc2c(cnn2-c2ccccc2)C1 (centres undefined)
inactive: endpoint: mean survival time, dose: 100.0 mg/kg/injection, schedule: Q04DX002 (ip), vehicle: saline with Tween-80 88 % of control | endpoint: mean survival time, dose: 200.0 mg/kg/injection, schedule: Q04DX002 (ip), vehicle: saline with Tween-80 100 % of control | endpoint: mean survival time, dose: 400.0 mg/kg/injection, schedule: Q04DX002 (ip), vehicle: saline with Tween-80 92 % of control

NC(CSSc1ccccc1)=NC1CCCCC1
inactive: endpoint: mean survival time, dose: 12.5 mg/kg/injection, schedule: Q01DX001 (ip), vehicle: Klucel (hydroxypropylcellulose) (HPC) 97 % of control | endpoint: mean survival time, dose: 25.0 mg/kg/injection, schedule: Q01DX001 (ip), vehicle: Klucel (hydroxypropylcellulose) (HPC) 92 % of control | endpoint: mean survival time, dose: 50.0 mg/kg/injection, schedule: Q01DX001 (ip), vehicle: Klucel (hydroxypropylcellulose) (HPC) 97 % of control

CN(C)CCCNc1cc(O)c2c(c1O)C(=O)c1ccccc1C2=O
inactive: endpoint: mean survival time, dose: 25.0 mg/kg/injection, schedule: Q01DX009 (ip), vehicle: water 98 % of control | endpoint: mean survival time, dose: 50.0 mg/kg/injection, schedule: Q01DX009 (ip), vehicle: water 98 % of control | endpoint: mean survival time, dose: 100.0 mg/kg/injection, schedule: Q01DX009 (ip), vehicle: water 95 % of control | endpoint: mean survival time, dose: 200.0 mg/kg/injection, schedule: Q01DX009 (ip), vehicle: water 98 % of control

O=C1C=C(N2CCOCC2)c2ccccc2C1=O
inactive: endpoint: mean survival time, dose: 75.0 mg/kg/injection, schedule: Q01DX001 (ip), vehicle: saline 100 % of control | endpoint: mean survival time, dose: 150.0 mg/kg/injection, schedule: Q01DX001 (ip), vehicle: saline 94 % of control

CCCCCCCCCc1nc(N)nc(N)n1
inactive: endpoint: mean survival time, dose: 50.0 mg/kg/injection, schedule: Q01DX009 (ip), vehicle: saline with Tween-80 104 % of control | [4] 104 % of control | [5] 104 % of control

O=C(CCl)Nc1cc(Cl)c(Cl)cc1Cl
inactive: [4] 97 % of control | [5] 94 % of control | [6] 102 % of control

Nc1cccc(/C=C/c2cccc([N+](=O)[O-])c2)c1
inactive: endpoint: mean survival time, dose: 100.0 mg/kg/injection, schedule: Q04DX002 (ip), vehicle: Klucel (hydroxypropylcellulose) (HPC) 98 % of control | endpoint: mean survival time, dose: 200.0 mg/kg/injection, schedule: Q04DX002 (ip), vehicle: Klucel (hydroxypropylcellulose) (HPC) 103 % of control | endpoint: mean survival time, dose: 400.0 mg/kg/injection, schedule: Q04DX002 (ip), vehicle: Klucel (hydroxypropylcellulose) (HPC) 103 % of control

c1ccc2c(c1)[nH]c1nc3ncncc3nc12
inactive: endpoint: mean survival time, dose: 100.0 mg/kg/injection, schedule: Q01DX009 (ip), vehicle: saline 98 % of control | endpoint: mean survival time, dose: 200.0 mg/kg/injection, schedule: Q01DX009 (ip), vehicle: saline 104 % of control | endpoint: mean survival time, dose: 400.0 mg/kg/injection, schedule: Q01DX009 (ip), vehicle: saline 112 % of control

CSCS(=O)C[C@H](CO)NC(=O)/C=C/c1c(C)[nH]c(=O)[nH]c1=O (some centres undefined)
inactive: endpoint: mean survival time, dose: 0.03 mg/kg/injection, schedule: Q01DX009 (ip), vehicle: saline 104 % of control | endpoint: mean survival time, dose: 0.06 mg/kg/injection, schedule: Q01DX009 (ip), vehicle: saline 103 % of control | endpoint: mean survival time, dose: 0.08 mg/kg/injection, schedule: Q01DX009 (ip), vehicle: water 105 % of control and 110 % of control | endpoint: mean survival time, dose: 0.13 mg/kg/injection, schedule: Q01DX009 (ip), vehicle: saline 101 % of control | endpoint: mean survival time, dose: 0.13 mg/kg/injection, schedule: Q01DX010 (ip), vehicle: saline 102 % of control and 111 % of control | endpoint: mean survival time, dose: 0.15 mg/kg/injection, schedule: Q01DX009 (ip), vehicle: water 115 % of control and 110 % of control | endpoint: mean survival time, dose: 0.25 mg/kg/injection, schedule: Q01DX009 (ip), vehicle: saline 115 % of control | endpoint: mean survival time, dose: 0.25 mg/kg/injection, schedule: Q01DX010 (ip), vehicle: saline 113 % of control and 114 % of control | endpoint: mean survival time, dose: 0.3 mg/kg/injection, schedule: Q01DX009 (ip), vehicle: water 116 % of control | endpoint: mean survival time, dose: 0.5 mg/kg/injection, schedule: Q01DX009 (ip), vehicle: saline 114 % of control | endpoint: mean survival time, dose: 0.5 mg/kg/injection, schedule: Q01DX010 (ip), vehicle: saline 119 % of control and 112 % of control | endpoint: mean survival time, dose: 0.6 mg/kg/injection, schedule: Q01DX009 (ip), vehicle: water 101 % of control | endpoint: mean survival time, dose: 1.0 mg/kg/injection, schedule: Q01DX010 (ip), vehicle: saline 108 % of control

COc1ccc(C2=Nc3cccc4c3N(CCC4)C2c2ccc(OC)cc2)cc1 (centres undefined)
inactive: endpoint: mean survival time, dose: 100.0 mg/kg/injection, schedule: Q04DX003 (ip), vehicle: other 96 % of control | endpoint: mean survival time, dose: 200.0 mg/kg/injection, schedule: Q04DX003 (ip), vehicle: other 96 % of control | endpoint: mean survival time, dose: 400.0 mg/kg/injection, schedule: Q04DX003 (ip), vehicle: other 94 % of control

CSc1nc2[nH]c(C)cc2c(=O)[nH]1
inactive: endpoint: median survival time, dose: 50.0 mg/kg/injection, schedule: Q01DX005 (ip), vehicle: saline 102 % of control | endpoint: median survival time, dose: 100.0 mg/kg/injection, schedule: Q01DX005 (ip), vehicle: saline 95 % of control | endpoint: median survival time, dose: 200.0 mg/kg/injection, schedule: Q01DX005 (ip), vehicle: saline 92 % of control

Cn1c(=O)c2c(ncn2CCCNCC(O)c2ccc(O)c(O)c2)n(C)c1=O (centres undefined)
inactive: endpoint: mean survival time, dose: 12.5 mg/kg/injection, schedule: Q01DX005 (ip), vehicle: water 98 % of control | endpoint: mean survival time, dose: 25.0 mg/kg/injection, schedule: Q01DX005 (ip), vehicle: water 98 % of control | endpoint: mean survival time, dose: 50.0 mg/kg/injection, schedule: Q01DX005 (ip), vehicle: water 94 % of control | endpoint: mean survival time, dose: 100.0 mg/kg/injection, schedule: Q01DX005 (ip), vehicle: water 100 % of control
